Experiments:
[1] = Effect on ambient level of [3H]GABA in Wistar rat synaptosomes assessed as [3H]GABA level at 100 uM preincubated for 20 mins (reference value: 14.20 +/- 1.03%); format: ADME, subcellular, Synaptosome
[2] = Effect on ambient level of [3H]GABA in Wistar rat synaptosomes assessed as [3H]GABA level at 100 uM preincubated for 20 mins in presence of GAT1 specific blocker NO-711 (reference value: 25.07 +/- 2.1%); format: ADME, subcellular, Synaptosome
[3] = Induction of plasma membrane depolarization in Wistar rat synaptosomes at 100 uM by rhodamine 6G based spectrofluorimeteric method; format: subcellular, Synaptosome
[4] = Induction of plasma membrane hyperpolarization in Wistar rat synaptosomes at 100 uM by rhodamine 6G based spectrofluorimeteric method; format: subcellular, Synaptosome
Rattus norvegicus = species: Rattus norvegicus; experiment: Decrease in KCl-induced exocytotic release of [3H]GABA in Wistar rat synaptosomes at 100 uM preincubated for 20 mins followed by Kcl addition in Ca2+ containing media measured after 5 mins; format: functional, subcellular; set-up: scale not given: the % may be the effect or the level left
[5] = Effect on ambient level of L-[3H]glutamate in Wistar rat synaptosomes assessed as L-[3H]glutamate level at 100 uM preincubated for 20 mins (reference value: 24.68 +/- 1.49%); format: ADME, subcellular, Synaptosome

| SMILES | Activity [1] [%] | Activity [2] [%] | Activity [3] | Activity [4] | Activity (Rattus norvegicus) [%] | Activity [5] [%] |
| --- | --- | --- | --- | --- | --- | --- |
| NCC(CC(=O)O)C(F)(F)C(F)F (racemic) | 14.63 | 26.6 | Non-Toxic | Non-Toxic | 33 | 25.29 |
| CC(C)C[C@H](CN)CC(=O)O [PREGABALIN] | 14.1 | 24.34 | Non-Toxic | Non-Toxic | 15 | 26.2 |
| NC[C@@H](CC(=O)O)C(F)(F)F | 13.35 | 24.86 | Non-Toxic | Non-Toxic | 26 | 24.75 |
| NC[C@@](O)(CC(=O)O)C(F)(F)F | 15.55 | 27.9 | Non-Toxic | Non-Toxic | 35 | 22.72 |
